Assay results from patent US20220187282A1, “CARDIOMYOCYTE PROLIFERATION” (The Council of the Queensland Institute of Medical Research, priority 2019, published 2022).
Read-outs that look alike come from different tables or passages of the source.

Columns and labels:
Format in all cases: biochemical
[1] = molecular target: kinases (Homo sapiens, UniProt P53355); conditions: DAPK1 FRET-Adapta SP; Test Conc(μM):ATP Conc(μM) 1:5
[2] = molecular target: kinases (Homo sapiens, UniProt P36897); conditions: TGFBR1 (ALK5) FRET-Lantha SP; Test Conc(μM) 1
[3] = molecular target: kinases (Homo sapiens, UniProt O15111); conditions: CHUK(IKK alpha) FRET-Adapta SP; Test Conc(μM):ATP Conc(μM) 1:10
[4] = molecular target: kinases (Homo sapiens, UniProt P29597); conditions: TYK2 FRET-Z-Lyte SP; Test Conc(μM):ATP Conc(μM) 1:25
[5] = molecular target: kinases (Homo sapiens, UniProt P49760); conditions: CLK2 FRET-Z-Lyte SP; Test Conc(μM):ATP Conc(μM) 1:25
[6] = molecular target: kinases (Homo sapiens, UniProt O00506); conditions: STK25 (YSK1) FRET-Z-Lyte SP; Test Conc(μM):ATP Conc(μM) 1:75
[7] = molecular target: kinases (Homo sapiens, UniProt O14920); conditions: IKBKB (IKKbeta) FRET-Z-Lyte SP; Test Conc(μM):ATP Conc(μM) 1:5
[8] = molecular target: kinases (Homo sapiens, UniProt Q9BXA7); conditions: STK22D (TSSK1) FRET-Z-Lyte SP; Test Conc(μM):ATP Conc(μM) 1:10
Chain of kinases (Homo sapiens, UniProt Q9BXA7) (Q9BXA7 whole entry): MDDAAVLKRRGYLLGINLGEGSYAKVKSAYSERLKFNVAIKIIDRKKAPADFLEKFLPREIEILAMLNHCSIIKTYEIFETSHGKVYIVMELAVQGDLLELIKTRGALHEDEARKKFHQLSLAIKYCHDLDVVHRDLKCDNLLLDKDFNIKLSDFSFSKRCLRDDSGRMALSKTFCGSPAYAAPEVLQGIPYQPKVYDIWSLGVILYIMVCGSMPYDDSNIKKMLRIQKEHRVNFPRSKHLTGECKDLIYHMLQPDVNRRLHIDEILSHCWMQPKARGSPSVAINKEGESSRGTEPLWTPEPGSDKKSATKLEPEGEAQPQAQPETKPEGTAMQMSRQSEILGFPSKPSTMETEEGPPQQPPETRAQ

[9] = molecular target: kinases (Homo sapiens, UniProt O14965); conditions: AURKA (Aurora A) Z-Lyte SP; Test Conc(μM):ATP Conc(μM) 1:10
Chain of kinases (Homo sapiens, UniProt O14965) (O14965 whole entry): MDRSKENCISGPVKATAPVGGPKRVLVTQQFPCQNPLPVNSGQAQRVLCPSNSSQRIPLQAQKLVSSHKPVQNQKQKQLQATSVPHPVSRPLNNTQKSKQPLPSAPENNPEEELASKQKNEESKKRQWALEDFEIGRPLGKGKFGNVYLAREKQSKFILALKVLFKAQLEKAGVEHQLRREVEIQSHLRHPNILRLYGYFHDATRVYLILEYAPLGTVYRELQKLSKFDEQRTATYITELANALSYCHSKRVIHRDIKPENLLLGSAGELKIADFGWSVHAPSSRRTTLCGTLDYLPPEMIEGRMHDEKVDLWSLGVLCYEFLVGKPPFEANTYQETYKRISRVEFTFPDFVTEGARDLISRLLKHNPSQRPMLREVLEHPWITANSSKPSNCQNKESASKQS

[10] = molecular target: kinases (Homo sapiens, UniProt Q8N568); conditions: DCAMKL2 (DCK2) FRET-Z-Lyte SP; Test Conc(μM):ATP Conc(μM) 1:150
[11] = molecular target: kinases (Homo sapiens, UniProt Q9H2G2); conditions: SLK Hu Bind FRET-Lantha SP; Test Conc(μM) 1
Chain of kinases (Homo sapiens, UniProt Q9H2G2) (Q9H2G2 whole entry): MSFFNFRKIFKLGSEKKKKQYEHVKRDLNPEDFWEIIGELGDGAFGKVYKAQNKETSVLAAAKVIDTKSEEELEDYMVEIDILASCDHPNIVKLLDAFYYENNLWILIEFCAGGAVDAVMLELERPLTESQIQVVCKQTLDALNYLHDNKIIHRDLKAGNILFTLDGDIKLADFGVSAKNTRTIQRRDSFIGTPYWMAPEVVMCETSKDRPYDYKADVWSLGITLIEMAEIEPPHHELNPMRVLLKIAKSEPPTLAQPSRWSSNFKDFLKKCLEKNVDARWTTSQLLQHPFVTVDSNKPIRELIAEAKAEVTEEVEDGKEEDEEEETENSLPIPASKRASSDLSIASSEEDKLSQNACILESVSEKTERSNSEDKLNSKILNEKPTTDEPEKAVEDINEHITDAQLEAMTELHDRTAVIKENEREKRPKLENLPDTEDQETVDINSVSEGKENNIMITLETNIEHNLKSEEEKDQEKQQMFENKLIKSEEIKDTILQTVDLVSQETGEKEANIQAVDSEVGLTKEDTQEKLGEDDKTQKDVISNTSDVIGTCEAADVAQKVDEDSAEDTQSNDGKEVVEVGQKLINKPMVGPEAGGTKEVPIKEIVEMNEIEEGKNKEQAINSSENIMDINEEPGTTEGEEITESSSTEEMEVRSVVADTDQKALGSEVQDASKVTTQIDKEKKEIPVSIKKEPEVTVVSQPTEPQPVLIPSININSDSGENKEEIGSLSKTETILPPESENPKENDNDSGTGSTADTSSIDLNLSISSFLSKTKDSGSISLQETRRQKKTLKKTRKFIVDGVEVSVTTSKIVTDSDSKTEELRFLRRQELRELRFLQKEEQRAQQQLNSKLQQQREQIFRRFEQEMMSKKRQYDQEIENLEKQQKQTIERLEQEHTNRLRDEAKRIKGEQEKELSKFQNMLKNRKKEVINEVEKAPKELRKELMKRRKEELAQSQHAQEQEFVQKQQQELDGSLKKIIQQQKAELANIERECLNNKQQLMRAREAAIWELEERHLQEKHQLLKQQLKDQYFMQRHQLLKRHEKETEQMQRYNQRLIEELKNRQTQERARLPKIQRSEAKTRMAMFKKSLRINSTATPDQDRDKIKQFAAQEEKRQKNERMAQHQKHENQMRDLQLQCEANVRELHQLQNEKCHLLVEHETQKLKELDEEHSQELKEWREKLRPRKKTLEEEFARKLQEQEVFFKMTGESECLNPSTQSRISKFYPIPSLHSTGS

[12] = molecular target: kinases (Homo sapiens, UniProt P42679); conditions: MATK (HYL) FRET-Z-Lyte SP
[13] = molecular target: kinases (Homo sapiens, UniProt Q96BR1); conditions: SGKL (SGK3) FRET-Z-Lyte SP; Test Conc(μM):ATP Conc(μM) 1:10
[14] = molecular target: kinases (Homo sapiens, UniProt Q99558); conditions: MAP3K14 (NIK) FRET-Lantha SP; Test Conc(μM) 1
[15] = molecular target: kinases (Homo sapiens, UniProt Q9Y463); conditions: DYRK1B FRET-Z-Lyte SP; Test Conc(μM):ATP Conc(μM) 1:75
Chain of kinases (Homo sapiens, UniProt Q9Y463) (Q9Y463 whole entry): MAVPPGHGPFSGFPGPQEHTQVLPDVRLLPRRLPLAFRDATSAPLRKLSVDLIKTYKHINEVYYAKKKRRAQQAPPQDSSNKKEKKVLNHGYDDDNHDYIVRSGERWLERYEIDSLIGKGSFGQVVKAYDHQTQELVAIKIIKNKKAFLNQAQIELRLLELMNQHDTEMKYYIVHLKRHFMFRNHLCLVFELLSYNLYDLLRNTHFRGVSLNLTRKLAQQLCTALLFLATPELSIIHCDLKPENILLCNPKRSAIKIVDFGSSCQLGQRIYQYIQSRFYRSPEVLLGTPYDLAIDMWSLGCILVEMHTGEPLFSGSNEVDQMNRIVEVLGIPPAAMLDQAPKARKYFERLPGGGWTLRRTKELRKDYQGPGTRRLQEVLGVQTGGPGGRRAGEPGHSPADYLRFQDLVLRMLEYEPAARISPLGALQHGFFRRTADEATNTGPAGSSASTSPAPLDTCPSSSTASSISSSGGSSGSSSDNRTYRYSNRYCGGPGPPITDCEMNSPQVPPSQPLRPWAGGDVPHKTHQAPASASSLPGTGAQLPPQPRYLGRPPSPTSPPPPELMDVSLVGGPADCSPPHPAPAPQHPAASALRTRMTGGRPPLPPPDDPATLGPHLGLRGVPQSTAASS

[16] = molecular target: kinases (Homo sapiens, UniProt P11802); conditions: Test Conc(μM):ATP Conc(μM) 1:10
Chain of kinases (Homo sapiens, UniProt P11802) (P11802 whole entry): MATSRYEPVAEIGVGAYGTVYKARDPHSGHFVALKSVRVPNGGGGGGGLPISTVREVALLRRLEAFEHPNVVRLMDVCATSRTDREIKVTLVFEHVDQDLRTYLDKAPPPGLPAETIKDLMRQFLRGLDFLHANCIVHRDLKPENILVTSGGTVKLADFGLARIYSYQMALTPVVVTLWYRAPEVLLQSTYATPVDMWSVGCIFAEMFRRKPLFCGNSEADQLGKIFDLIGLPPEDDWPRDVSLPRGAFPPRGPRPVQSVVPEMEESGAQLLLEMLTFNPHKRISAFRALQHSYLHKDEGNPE

[17] = molecular target: kinases (Homo sapiens, UniProt O00750); conditions: PIK3C2B FRET-Adapta SP; Test Conc(μM):ATP Conc(μM) 1:10
[18] = molecular target: kinases (Homo sapiens, UniProt P33981); conditions: TTK FRET-Lantha SP; Test Conc(μM) 1
Chain of kinases (Homo sapiens, UniProt P33981) (P33981 whole entry): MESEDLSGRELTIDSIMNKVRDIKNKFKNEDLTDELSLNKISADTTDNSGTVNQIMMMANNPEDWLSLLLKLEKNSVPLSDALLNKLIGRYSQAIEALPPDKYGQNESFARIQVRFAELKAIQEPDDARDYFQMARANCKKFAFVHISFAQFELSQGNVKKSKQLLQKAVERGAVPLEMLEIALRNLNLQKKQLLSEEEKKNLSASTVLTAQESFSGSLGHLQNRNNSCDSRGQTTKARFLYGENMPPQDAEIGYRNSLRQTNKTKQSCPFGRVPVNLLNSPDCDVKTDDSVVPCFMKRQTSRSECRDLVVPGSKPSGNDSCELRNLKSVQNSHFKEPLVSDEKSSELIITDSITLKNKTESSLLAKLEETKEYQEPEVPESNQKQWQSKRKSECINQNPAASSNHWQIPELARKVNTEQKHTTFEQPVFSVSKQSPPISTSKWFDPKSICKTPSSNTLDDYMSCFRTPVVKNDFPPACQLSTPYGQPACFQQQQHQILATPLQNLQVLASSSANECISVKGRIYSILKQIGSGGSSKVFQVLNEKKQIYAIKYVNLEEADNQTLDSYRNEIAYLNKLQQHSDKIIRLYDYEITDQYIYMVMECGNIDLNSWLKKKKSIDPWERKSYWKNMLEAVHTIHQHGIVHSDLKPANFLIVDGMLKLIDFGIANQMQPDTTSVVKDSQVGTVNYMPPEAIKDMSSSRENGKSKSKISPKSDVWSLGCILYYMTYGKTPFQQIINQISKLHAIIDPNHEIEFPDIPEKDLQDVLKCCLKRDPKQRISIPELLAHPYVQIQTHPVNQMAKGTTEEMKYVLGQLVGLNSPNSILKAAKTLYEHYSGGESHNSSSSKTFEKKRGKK

[19] = molecular target: kinases (Homo sapiens, UniProt Q12851); conditions: MAP4K2 (GCK) FRET-Z-Lyte SP; Test Conc(μM):ATP Conc(μM) 1:100
[20] = molecular target: kinases (Homo sapiens, UniProt Q8NEV4); conditions: MYO3A (MYO3 alpha) Lantha SP; Test Conc(μM) 1
[21] = molecular target: kinases (Homo sapiens, UniProt Q96L34); conditions: MARK4 FRET-Z-Lyte SP; Test Conc(μM):ATP Conc(μM) 1:10
Chain of kinases (Homo sapiens, UniProt Q96L34) (Q96L34 whole entry): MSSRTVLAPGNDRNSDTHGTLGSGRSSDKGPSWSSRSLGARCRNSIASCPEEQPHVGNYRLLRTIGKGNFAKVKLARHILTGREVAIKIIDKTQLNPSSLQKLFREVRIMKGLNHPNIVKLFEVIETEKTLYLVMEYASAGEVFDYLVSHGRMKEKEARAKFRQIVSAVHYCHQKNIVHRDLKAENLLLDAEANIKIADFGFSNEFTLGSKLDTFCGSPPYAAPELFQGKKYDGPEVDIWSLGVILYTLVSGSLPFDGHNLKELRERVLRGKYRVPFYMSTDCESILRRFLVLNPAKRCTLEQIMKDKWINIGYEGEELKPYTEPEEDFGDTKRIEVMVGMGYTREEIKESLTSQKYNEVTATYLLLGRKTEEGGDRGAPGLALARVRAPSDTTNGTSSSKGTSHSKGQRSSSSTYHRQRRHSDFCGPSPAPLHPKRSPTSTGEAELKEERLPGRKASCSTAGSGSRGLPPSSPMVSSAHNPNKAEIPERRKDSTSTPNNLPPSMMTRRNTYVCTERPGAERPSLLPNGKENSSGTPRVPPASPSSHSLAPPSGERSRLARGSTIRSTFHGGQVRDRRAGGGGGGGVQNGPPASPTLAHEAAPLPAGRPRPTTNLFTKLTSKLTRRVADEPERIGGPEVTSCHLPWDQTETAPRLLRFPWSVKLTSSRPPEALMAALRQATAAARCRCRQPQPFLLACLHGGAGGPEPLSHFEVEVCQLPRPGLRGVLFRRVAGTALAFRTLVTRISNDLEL

[22] = molecular target: kinases (Homo sapiens, UniProt Q9UL54); conditions: TAOK2 (TAO1) FRET-Z-Lyte SP
[23] = molecular target: kinases (Homo sapiens, UniProt P54762); conditions: EPHB1 FRET-Z-Lyte SP; Test Conc(μM):ATP Conc(μM) 1:50
[24] = molecular target: kinases (Homo sapiens, UniProt P49137); conditions: MAPKAPK2 FRET-Z-Lyte SP; Test Conc(μM):ATP Conc(μM) 1:5
[25] = molecular target: kinases (Homo sapiens, UniProt P51955); conditions: NEK2 FRET-Z-Lyte SP; Test Conc(μM):ATP Conc(μM) 1:150
[26] = molecular target: kinases (Homo sapiens, UniProt P27037); conditions: ACVR2A FRET-Lantha SP; Test Conc(μM) 1
[27] = molecular target: kinases (Homo sapiens, UniProt Q13705); conditions: ACVR2B FRET-Lantha SP; Test Conc(μM) 1
Chain of kinases (Homo sapiens, UniProt Q13705) (Q13705 19-512): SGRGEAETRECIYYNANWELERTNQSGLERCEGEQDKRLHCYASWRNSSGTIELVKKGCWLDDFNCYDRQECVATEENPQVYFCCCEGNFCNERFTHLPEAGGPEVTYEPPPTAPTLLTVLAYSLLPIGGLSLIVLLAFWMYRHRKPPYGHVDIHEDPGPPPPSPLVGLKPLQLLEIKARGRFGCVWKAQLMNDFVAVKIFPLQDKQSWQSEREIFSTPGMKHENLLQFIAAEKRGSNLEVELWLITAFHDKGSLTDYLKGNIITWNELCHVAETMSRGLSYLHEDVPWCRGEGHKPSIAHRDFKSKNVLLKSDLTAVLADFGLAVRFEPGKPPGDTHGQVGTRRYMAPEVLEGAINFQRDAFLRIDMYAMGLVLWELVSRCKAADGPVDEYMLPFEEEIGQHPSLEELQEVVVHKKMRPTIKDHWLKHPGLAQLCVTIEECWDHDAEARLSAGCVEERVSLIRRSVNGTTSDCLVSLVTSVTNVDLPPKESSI

[28] = molecular target: kinases (Homo sapiens, UniProt Q13557); conditions: CAMK2D FRET-Z-Lyte SP; Test Conc(μM):ATP Conc(μM) 1:5
[29] = Test Conc(μM):ATP Conc(μM) 1:300
[30] = Test Conc(μM):ATP Conc(μM) 0.25

Structure (SMILES)	Mean Inhib (%) [1]	Mean Inhib (%) [2]	Mean Inhib (%) [3]	Mean Inhib (%) [4]	Mean Inhib (%) [5]	Mean Inhib (%) [6]	Mean Inhib (%) [7]	Mean Inhib (%) [8]	Mean Inhib (%) [9]	Mean Inhib (%) [10]	Mean Inhib (%) [11]	Mean Inhib (%) [13]	Mean Inhib (%) [14]	Mean Inhib (%) [15]	Mean Inhib (%) [17]	Mean Inhib (%) [18]	Mean Inhib (%) [19]	Mean Inhib (%) [20]	Mean Inhib (%) [21]	Mean Inhib (%) [23]	other results
Cc1ccc(NC(=O)c2ccnc(N3CCOCC3)c2)cc1Nc1ccnc(N2CC(C)OC(C)C2)n1 (stereo not shown) [compound 3]	1.4%	5.3%	−6.9%	6.0%	3.7%	8.8%	0.6%	18.8%	−2.7%	5.5%	−3.6%	13.3%	−1.3%	3.0%	3.7%	6.5%	13.1%	10.8%	0.2%	3.5%	Mean Inhib (%) [12, 29]: 3.2%; Mean Inhib (%) ([16]; CDK4 Cyclin D1 *Mn* Adapta SP): 7.8%; Mean Inhib (%) ([16]; CDK4 Cyclin D3 *Mn* Adapta SP): 5.0%; Mean Inhib (%) [22, 29]: −3.6%; Mean Inhib (%) [24]: −2.1%; Mean Inhib (%) [25]: −0.8%; Mean Inhib (%) [26]: 3.8%; Mean Inhib (%) [27]: −2.1%; Mean Inhib (%) [28]: 8.1%
Cc1cc(Oc2ccnc(Nc3ccc(S(N)(=O)=O)cc3)c2)c(-c2ccccn2)nc1C [compound 65]	−2.6%	99.6%	−6.2%	8.4%	15.7%	2.0%	−2.5%	12.2%	7.2%	4.9%	3.0%	4.7%	4.9%	−5.0%	−0.9%	−2.0%	18.4%	1.6%	1.4%	47.1%	Mean Inhib (%) [12, 30]: 1.8%; CDK4 Cyclin D1 *Mn* Adapta SP Mean Mean Inhib (%) ([16]; CDK4 Cyclin D1, Mn): 2.5%; CDK4 Cyclin D3 *Mn* Adapta SP Mean Mean Inhib (%) ([16]; CDK4 Cyclin D3, Mn): −3.9%; Mean Inhib (%) [22, 30]: 13.7%; Mean Inhib (%) [24]: 9.2%; Mean Inhib (%) [25]: 12.8%; Mean Inhib (%) [26]: 71.5%; Mean Inhib (%) [27]: 95.6%; Mean Inhib (%) [28]: 0.3%
